Data on 27 compounds can be found in patent publication US9676732B2, “Ethynyl derivatives” (Hoffmann-La Roche Inc., priority 2013, dated 2017).

This test concerns the target human mGlu4 receptor (Homo sapiens (Human), UniProt Q14833). As to the kind of experiment: Ca2+ mobilization in vitro assay on recombinant human mGlu4 expressed in HEK293 cells (mGlu4 PAM). Particulars: for EC50: HEK293 cells stably expressing human mGlu4, L-AP4 added at EC20, read-out: EC50 (nM) mGlu4PAM; for Eff. (%): maximal response in % of the maximal stimulatory effect obtained with saturating concentrations of L-AP4. The test is classed as cell-based. How it is done:
Determination of EC50 Values Using a Ca2+ Mobilization In Vitro Assay on Recombinant Human mGlu4 Expressed in HEK293 Cells:
A monoclonal HEK-293 cell line stably transfected with a cDNA encoding for the human mGlu4 receptor was generated; for the work with mGlu4 Positive Allosteric Modulators (PAMs), a cell line with low receptor expression levels and low constitutive receptor activity was selected to allow the differentiation of agonistic versus PAM activity. Cells were cultured according to standard protocols (Freshney, 2000) in Dulbecco's Modified Eagle Medium with high glucose supplemented with 1 mM glutamine, 10% (vol/vol) heat-inactivated bovine calf serum, Penicillin/Streptomycin, 50 μg/ml hygromycin and 15 μg/ml blasticidin (all cell culture reagents and antibiotics from Invitrogen, Basel, Switzerland).
About 24 hrs before an experiment, 5×10^4 cells/well were seeded in poly-D-lysine coated, black/clear-bottomed 96-well plates. The cells were loaded with 2.5 μM Fluo-4AM in loading buffer (1×HBSS, 20 mM HEPES) for 1 hr at 37° C. and washed five times with loading buffer. The cells were transferred into a Functional Drug Screening System 7000 (Hamamatsu, Paris, France), and 11 half logarithmic serial dilutions of test compound at 37° C. were added and the cells were incubated for 10-30 min. with on-line recording of fluorescence. Following this pre-incubation step, the agonist (2S)-2-amino-4-phosphonobutanoic acid (L-AP4) was added to the cells at a concentration corresponding to EC20 with on-line recording of fluorescence; in order to account for day-to-day variations in the responsiveness of cells, the EC20 of L-AP4 was determined immediately ahead of each experiment by recording of a full dose-response curve of L-AP4.
Responses were measured as peak increase in fluorescence minus basal (i.e. fluorescence without addition of L-AP4), normalized to the maximal stimulatory effect obtained with saturating concentrations of L-AP4. Graphs were plotted with the % maximal stimulatory using XLfit, a curve fitting program that iteratively plots the data using Levenburg Marquardt algorithm. The single site competition analysis equation used was y=A+((B−A)/(1+((x/C)D))), where y is the % maximal stimulatory effect, A is the minimum y, B is the maximum y, C is the EC50, x is the log 10 of the concentration of the competing compound and D is the slope of the curve (the Hill Coefficient). From these curves the EC50 (drug concentration at which 50% of the maximal receptor activation was achieved), the Hill coefficient as well as the maximal response in % of the maximal stimulatory effect obtained with saturating concentrations of L-AP4 were calculated (see FIG. 1).
A depression of the signal observed after addition of the EC20 concentration of L-AP4 was indicative of an inhibitory activity of the test compound. • FIG. 1: Illustration of the experimental outline for mGlu4 PAM Ca2+ mobilization screening assay and the determination of EC50 and % Emax values.
In general terms: Calcium assays in cells follow changes in intracellular calcium, usually with a dye or a luminescent sensor.

Usually EC50 stands for the concentration at which the effect is half-maximal.

Sequence of human mGlu4 receptor (Q14833 33-912): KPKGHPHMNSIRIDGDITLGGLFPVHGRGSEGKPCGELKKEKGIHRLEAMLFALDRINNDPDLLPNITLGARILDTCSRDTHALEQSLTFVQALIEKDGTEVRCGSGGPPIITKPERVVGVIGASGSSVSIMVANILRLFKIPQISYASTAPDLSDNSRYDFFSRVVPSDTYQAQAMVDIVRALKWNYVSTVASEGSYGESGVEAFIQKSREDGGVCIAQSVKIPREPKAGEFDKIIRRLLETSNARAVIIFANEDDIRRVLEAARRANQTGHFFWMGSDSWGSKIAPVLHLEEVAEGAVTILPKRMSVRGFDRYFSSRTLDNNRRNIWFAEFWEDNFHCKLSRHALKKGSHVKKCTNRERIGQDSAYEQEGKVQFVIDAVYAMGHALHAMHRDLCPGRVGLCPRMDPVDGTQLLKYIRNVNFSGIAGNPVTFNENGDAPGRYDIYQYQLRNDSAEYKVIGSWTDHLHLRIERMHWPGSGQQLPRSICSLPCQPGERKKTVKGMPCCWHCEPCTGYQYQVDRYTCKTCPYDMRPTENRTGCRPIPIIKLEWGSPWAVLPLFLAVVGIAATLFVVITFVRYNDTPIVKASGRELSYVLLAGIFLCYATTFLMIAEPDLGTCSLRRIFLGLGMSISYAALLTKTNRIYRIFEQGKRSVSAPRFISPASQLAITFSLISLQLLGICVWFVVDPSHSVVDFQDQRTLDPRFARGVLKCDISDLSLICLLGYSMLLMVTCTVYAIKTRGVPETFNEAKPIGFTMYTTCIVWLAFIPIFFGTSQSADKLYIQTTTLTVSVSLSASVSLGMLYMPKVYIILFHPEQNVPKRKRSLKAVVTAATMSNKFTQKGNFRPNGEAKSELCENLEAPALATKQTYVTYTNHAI

With `Cn1c(=O)n(-c2ccc(C#Cc3ccccc3)cc2Cl)c(=O)c2ccccc21` [Example 1, 3-[2-Chloro-4-(2-phenylethynyl)phenyl]-1-methyl-quinazoline-2,4-dione], the concentration giving a half-maximal response (EC50) was 150 nM and the “Eff. (%)” value was 102%.

`Cc1cccc2c(=O)n(-c3ccc(C#Cc4ccccc4)cc3Cl)c(=O)n(C)c12` [Example 2, 3-[2-Chloro-4-(2-phenylethynyl)phenyl]-1,8-dimethyl-quinazoline-2,4-dione]: the EC50 came out at 94 nM and the “Eff. (%)” value was 99%.

Take `Cn1c(=O)n(-c2ccc(C#Cc3ccccc3)cc2Cl)c(=O)c2cccc(Cl)c21` [Example 3, 8-Chloro-3-[2-chloro-4-(2-phenylethynyl)phenyl]-1-methyl-quinazoline-2,4-dione]: the concentration for a half-maximal effect (EC50) was determined as 137 nM and the “Eff. (%)” value is on record as 93%.

On to `Cn1c(=O)n(-c2ccc(C#Cc3ccccc3)cc2Cl)c(=O)c2ccc(Cl)cc21` [Example 4, 7-Chloro-3-[2-chloro-4-(2-phenylethynyl)phenyl]-1-methyl-quinazoline-2,4-dione], for which the EC50 was 220 nM and the “Eff. (%)” value came to 120%.

For the compound `Cc1ccc2c(=O)n(-c3ccc(C#Cc4ccccc4)cc3Cl)c(=O)n(C)c2c1` [Example 5, 3-[2-Chloro-4-(2-phenylethynyl)phenyl]-1,7-dimethyl-quinazoline-2,4-dione], the EC50 is 93 nM and the “Eff. (%)” value was 108%.

Consider `O=c1[nH]c2ncccc2c(=O)n1-c1ccc(C#Cc2ccccc2)cc1Cl` [Example 6, 3-[2-Chloro-4-(2-phenylethynyl)phenyl]-1H-pyrido[2,3-d]pyrimidine-2,4-dione], for which the 50% effective concentration (EC50) was determined as 179 nM and the “Eff. (%)” value is listed as 104%.

With `Cn1c(=O)n(-c2ccc(C#Cc3ccccc3)cc2Cl)c(=O)c2cccnc21` [Example 7, 3-[2-Chloro-4-(2-phenylethynyl)phenyl]-1-methyl-pyrido[2,3-d]pyrimidine-2,4-dione], the concentration giving a half-maximal response (EC50) came out at 222 nM and the “Eff. (%)” value is reported as 101%.

With `CCc1cccc2c(=O)n(-c3ccc(C#Cc4ccccc4)cc3Cl)c(=O)n(C)c12` [Example 8, 3-[2-Chloro-4-(2-phenylethynyl)phenyl]-8-ethyl-1-methyl-quinazoline-2,4-dione], the EC50 worked out at 65 nM and the “Eff. (%)” value was found to be 100%.

Consider `Cn1c(=O)n(-c2ccc(C#Cc3ccccc3)cc2Cl)c(=O)c2ncccc21` [Example 9, 3-[2-Chloro-4-(2-phenylethynyl)phenyl]-1-methyl-pyrido[3,2-d]pyrimidine-2,4-dione], for which the 50% effective concentration (EC50) worked out at 308 nM and the “Eff. (%)” value was found to be 167%.

Turning to `Cn1c(=O)n(-c2ccc(C#Cc3ccccc3)cc2Cl)c(=O)c2cnccc21` [Example 10, 3-[2-Chloro-4-(2-phenylethynyl)phenyl]-1-methyl-pyrido[4,3-d]pyrimidine-2,4-dione], the 50% effective concentration (EC50) was found to be 399 nM and the “Eff. (%)” value is recorded as 180%.

Consider `Cn1cnc2c1c(=O)n(-c1ccc(C#Cc3ccccc3)cc1Cl)c(=O)n2C` [Example 11, 1-[2-Chloro-4-(2-phenylethynyl)phenyl]-3,7-dimethyl-purine-2,6-dione], for which the EC50 worked out at 175 nM and the “Eff. (%)” value came to 122%.

Regarding `O=c1c2cccc3c2n(c(=O)n1-c1ccc(C#Cc2ccccc2)cc1Cl)CC3` [Example 12, 2-(2-Chloro-4-(phenylethynyl)phenyl)-5,6-dihydro-1H-pyrrolo[3,2,1-ij]quinazoline-1,3(2H)-dione], the half-maximal effective concentration (EC50) was 80 nM and the “Eff. (%)” value was determined as 106%.

As for `CC(C)n1c(=O)n(-c2ccc(C#Cc3ccccc3)cc2Cl)c(=O)c2ccccc21` [Example 13, 3-[2-Chloro-4-(2-phenylethynyl)phenyl]-1-isopropyl-quinazoline-2,4-dione], the EC50 was 57 nM and the “Eff. (%)” value was 115%.

In the case of `CCn1c(=O)n(-c2ccc(C#Cc3ccccc3)cc2Cl)c(=O)c2ccccc21` [Example 14, 3-[2-Chloro-4-(2-phenylethynyl)phenyl]-1-ethyl-quinazoline-2,4-dione], the EC50 was found to be 172 nM and the “Eff. (%)” value is 97%.

`Cn1c(=O)n(-c2ccc(C#Cc3ccccc3)cc2Cl)c(=O)c2nccnc21` [Example 15, 3-[2-Chloro-4-(2-phenylethynyl)phenyl]-1-methyl-pteridine-2,4-dione]: the concentration giving a half-maximal response (EC50) is 110 nM and the “Eff. (%)” value is given as 111%.

As for `O=c1[nH]c2ncncc2c(=O)n1-c1ccc(C#Cc2ccccc2)cc1Cl` [Example 16, 3-[2-Chloro-4-(2-phenylethynyl)phenyl]-1H-pyrimido[4,5-d]pyrimidine-2,4-dione], the EC50 came to 152 nM and the “Eff. (%)” value was 98%.

As for `Cn1c(=O)n(-c2ccc(C#Cc3ccccc3)cc2Cl)c(=O)c2cncnc21` [Example 17, 3-[2-Chloro-4-(2-phenylethynyl)phenyl]-1-methyl-pyrimido[4,5-d]pyrimidine-2,4-dione], the EC50 is 143 nM and the “Eff. (%)” value came out at 101%.

For the compound `Cn1c(=O)n(-c2ccc(C#Cc3ccccc3)cc2Cl)c(=O)c2cc(F)ccc21` [Example 18, 3-[2-Chloro-4-(2-phenylethynyl)phenyl]-6-fluoro-1-methyl-quinazoline-2,4-dione], the EC50 was 148 nM and the “Eff. (%)” value was 86%.

Consider `Cn1c(=O)n(-c2ccc(C#Cc3ccccc3)cc2Cl)c(=O)c2ccc(F)c(F)c21` [Example 19, 3-[2-Chloro-4-(2-phenylethynyl)phenyl]-7,8-difluoro-1-methyl-quinazoline-2,4-dione], for which the EC50 was 134 nM and the “Eff. (%)” value stood at 73%.

Regarding `Cc1csc2c(=O)n(-c3ccc(C#Cc4ccccc4)cc3Cl)c(=O)n(C)c12` [Example 20, 3-[2-Chloro-4-(2-phenylethynyl)phenyl]-1,7-dimethyl-thieno[3,2-d]pyrimidine-2,4-dione], the EC50 turned out to be 50 nM and the “Eff. (%)” value is 74%.

`CC(C)n1c(=O)n(-c2ccc(C#Cc3ccccc3)cc2Cl)c(=O)c2nccnc21` [Example 21, 3-[2-Chloro-4-(2-phenylethynyl)phenyl]-1-isopropyl-pteridine-2,4-dione]: the 50% effective concentration (EC50) turned out to be 52 nM and the “Eff. (%)” value was 89%.

Consider `CC(C)n1c(=O)n(-c2ccc(C#Cc3cccnc3)cc2Cl)c(=O)c2nccnc21` [Example 22, 3-[2-Chloro-4-[2-(3-pyridyl)ethynyl]phenyl]-1-isopropyl-pteridine-2,4-dione], for which the concentration giving a half-maximal response (EC50) was 167 nM and the “Eff. (%)” value came out at 88%.

Regarding `Cn1c(=O)n(-c2c(F)cc(C#Cc3ccccc3)cc2F)c(=O)c2ccccc21` [Example 23, 3-[2,6-Difluoro-4-(2-phenylethynyl)phenyl]-1-methyl-quinazoline-2,4-dione], the EC50 was 203 nM and the “Eff. (%)” value amounted to 168%.

Turning to `Cc1cccc2c(=O)n(-c3c(F)cc(C#Cc4ccccc4)cc3F)c(=O)n(C)c12` [Example 24, 3-[2,6-Difluoro-4-(2-phenylethynyl)phenyl]-1,8-dimethyl-quinazoline-2,4-dione], the half-maximal effective concentration (EC50) was determined as 26 nM and the “Eff. (%)” value is given as 101%.

As for `Cn1c(=O)n(-c2c(F)cc(C#Cc3ccccc3)cc2F)c(=O)c2cccnc21` [Example 25, 3-(2,6-Difluoro-4-phenylethynyl-phenyl)-1-methyl-1H-pyrido[2,3-d]pyrimidine-2,4-dione], the half-maximal effective concentration (EC50) came to 89 nM and the “Eff. (%)” value came out at 109%.

For `Cc1ccc2c(=O)n(-c3c(F)cc(C#Cc4ccccc4)cc3F)c(=O)n(C)c2c1` [Example 26, 3-[2,6-Difluoro-4-(2-phenylethynyl)phenyl]-1,7-dimethyl-quinazoline-2,4-dione], the half-maximal effective concentration (EC50) was found to be 115 nM and the “Eff. (%)” value was found to be 108%.

As to `Cc1csc2c(=O)n(-c3c(F)cc(C#Cc4ccccc4)cc3F)c(=O)n(C)c12` [Example 27, 3-[2,6-Difluoro-4-(2-phenylethynyl)phenyl]-1,7-dimethyl-thieno[3,2-d]pyrimidine-2,4-dione], the 50% effective concentration (EC50) came out at 16 nM and the “Eff. (%)” value is listed as 83%.
